Experimental data published in patent US9492508B2, “Parathyroid hormone analogs and uses thereof” (The General Hospital Corporation, priority 2010, dated 2016).
Square brackets hold non-standard residues; d marks the D form. Peptide text beside a SMILES is read from it. hArg = N=C(N)NCCCC[C@H](N)C(=O)O; Aib = CC(C)(N)C(=O)O

Key:
rat PTHR1 (R0) = molecular target: T1, rat PTHR1 (R0) (Rattus norvegicus, UniProt P25961); test: Competition binding, R0 conformation of rat PTHR1; conditions: R0 conformation; mean of 4 experiments; read-out: Binding rat PTHR1 IC50 (Log M) R0 (converted)
T1 sequence (P25961 27-591): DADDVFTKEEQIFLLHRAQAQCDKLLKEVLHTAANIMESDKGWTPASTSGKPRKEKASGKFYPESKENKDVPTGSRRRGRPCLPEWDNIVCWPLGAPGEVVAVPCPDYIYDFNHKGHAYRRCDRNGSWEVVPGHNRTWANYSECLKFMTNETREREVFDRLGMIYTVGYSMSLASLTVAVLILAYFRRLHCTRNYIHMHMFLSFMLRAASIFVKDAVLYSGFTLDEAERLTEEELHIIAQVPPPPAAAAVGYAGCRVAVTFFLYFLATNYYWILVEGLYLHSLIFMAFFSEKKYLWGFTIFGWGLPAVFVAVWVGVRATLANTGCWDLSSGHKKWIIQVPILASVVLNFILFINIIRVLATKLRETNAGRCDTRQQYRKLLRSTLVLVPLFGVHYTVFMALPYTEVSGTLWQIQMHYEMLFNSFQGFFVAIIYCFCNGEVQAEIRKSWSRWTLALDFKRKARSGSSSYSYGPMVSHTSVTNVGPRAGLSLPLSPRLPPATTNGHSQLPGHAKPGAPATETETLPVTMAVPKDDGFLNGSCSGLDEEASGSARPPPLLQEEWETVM
From the text: Briefly, the R^0 form of the receptor can be favored by addition of the non-hydrolyzable nucleotide analog GTPγS. The RG form can be favored, for example, by co-transfection of cells with a negative dominant Gαs subunit. […] Data are means of four experiments, each performed in duplicate. Curves were fit to the data using Graph-Pad Prism 4.0.

MC3T3-E1 cells = test: cAMP RIA in intact MC3T3-E1 cells; assay type: cell-based, mouse; conditions: 30 min, room temperature, IBMX
Method: cAMP stimulating activity of these polypeptides was also assessed, using two different methods: a radioimmunoassay (RIA; FIG. 2) and a cAMP responsive element fused to a luciferase gene (FIG. 3). Briefly, the RIA cAMP assays were performed in intact MC3T3-E1 cells, a mouse pre-osteoblastic cell line, in 96-well plates, as described by Okazaki et al. (Proc Natl Acad Sci USA 105:16525-30, 2008). […] The cAMP contents of the HCl lysates were then determined by RIA. Data are means of six experiments, each performed in duplicate. Curves were fit to the data using Graph-Pad Prism 4.0.

- IC50 (rat PTHR1 (R0)): 1.48 nM
- EC50 (MC3T3-E1 cells): 0.048 nM
- cAMP MC3T3-E1 cells EC50 (Log M) (MC3T3-E1 cells; 6 experiments): −10.3 ± 0.1 Log M
SMILES: CC[C@H](C)[C@H](NC(=O)[C@H](CCC(=O)O)NC(=O)C(C)(C)NC(=O)[C@@H](NC(=O)[C@H](C)N)C(C)C)C(=O)N[C@@H](CCC(N)=O)C(=O)N[C@@H](CC(C)C)C(=O)N[C@@H](CCSC)C(=O)N[C@@H](Cc1c[nH]cn1)C(=O)N[C@@H](CCC(N)=O)C(=O)N[C@@H](CCCCNC(=N)N)C(=O)N[C@@H](C)C(=O)N[C@@H](CCCCN)C(=O)N[C@@H](Cc1c[nH]c2ccccc12)C(=O)N[C@@H](CC(C)C)C(=O)N[C@@H](CC(N)=O)C(=O)N[C@@H](CO)C(=O)N[C@@H](CCSC)C(=O)N[C@@H](CCCNC(=N)N)C(=O)N[C@@H](CCCNC(=N)N)C(=O)N[C@H](C(=O)N[C@@H](CCC(=O)O)C(=O)N[C@@H](Cc1c[nH]c2ccccc12)C(=O)N[C@@H](CC(C)C)C(=O)N[C@@H](CCCNC(=N)N)C(=O)N[C@@H](CCCCN)C(=O)N[C@@H](CCCCN)C(=O)N[C@@H](CC(C)C)C(=O)N[C@@H](CCC(N)=O)C(=O)N[C@@H](CC(=O)O)C(=O)N[C@H](C(=O)N[C@@H](Cc1c[nH]cn1)C(=O)N[C@@H](CC(N)=O)C(=O)N[C@@H](Cc1ccccc1)C(N)=O)C(C)C)C(C)C [M-PTH(1-34), M-PTH(1-34).NH2, reference compound] (H-AV[Aib]EIQLMHQ[hArg]AKWLNSMRRVEWLRKKLQDVHNF-NH2; N-terminus assumed)
- cAMP MC3T3-E1 cells Emax (pmole/well) (MC3T3-E1 cells): 56.3 ± 13.4 pmole/well
